What was measured:
[1] = tested on: MT-2 cells; experiment: Cytotoxicity in MT-2 cells (concentration to kill 50% of the cells); format: cell-based
From the text: (§1) PMPA (9-[(R)-2-(phosphonomethoxy)propyl]adenine) and PMPA carbonates were examined to determine their activity against HIV-1.

[2] = tested on: HIV-1(IIIB); experiment: Antiviral activity against HIV-1(IIIB) in MT-2 cells (tissue culture); format: cell-based; conditions: for SI - Selectivity Index(CC50/IC50): CC50/IC50, HIV-1, MT-2 cells; for IC50: Human immunodeficiency virus 1, MT2, HIV-1(IIIB), MT-2 cells, read-out: IC50 (50% inhibitory concentration)
From the text: as §1

[3] = Chemical (solution) stability of PMPA carbonates; format: physicochemical; conditions: compared with preferred t 1/2 at pH 7.4 (> 2-12 hours) and at pH 2.0 (> 1, 10 or 100 hours)
Protocol: The solution stability of PMPA carbonates was studied at pH 7.4 at 37°C in 10 mM buffer (NaH2PO4 and Na2HPO4) with the total ionic strength adjusted to 0.15 M with KCl. The assays were performed by adding 200 µL of a PMPA carbonate stock solution (about 1 mg/mL in DMSO) to 10 mL of pre-equilibrated buffer at 37°C. Samples were removed at specific times points and analyzed by HPLC. The chemical t 1/2 is expressed in terms of the number of hours required to hydrolyze 50% of the carbonate at the specified pH.

[4] = Cytotoxicity in MT-2 cells (concentration to kill 50% of the cells); format: cell-based; conditions: human
From the text: as §1

[5] = physchem
From the text: as §1

| Compound | CC50 [1] [nM] | SI - Selectivity Index(CC50/IC50) [2] | IC50 [2] [nM] | t 1/2 (chemical stability) [3] | increased potency / activity compared to PMPA ([2]; anti-HIV-1 activity relative to PMPA) [fold] | CC50 [4] [nM] | logP [5] |
| --- | --- | --- | --- | --- | --- | --- | --- |
| CCOC(=O)OCOP(=O)(CO[C@H](C)Cn1cnc2c(N)ncnc21)OCOC(=O)OCC [5a] | 40000 | 20000 | 2 |  |  |  |  |
| CC(C)COC(=O)OCOP(=O)(CO[C@H](C)Cn1cnc2c(N)ncnc21)OCOC(=O)OCC(C)C [5c] | 30000 | 30000 | < 1 |  |  |  |  |
| C[C@H](Cn1cnc2c(N)ncnc21)OCP(=O)(OCOC(=O)OC(C)(C)C)OCOC(=O)OC(C)(C)C [5d] | 10000 | 50 | 200 | less stable than these parameters | 2.5 |  |  |
| C[C@H](Cn1cnc2c(N)ncnc21)OCP(=O)(OCOC(=O)OCC(C)(C)C)OCOC(=O)OCC(C)(C)C [5e] | 3000 | 3000 | < 1 |  |  |  |  |
| CC(C)OC(=O)OCOP(=O)(CO[C@H](C)Cn1cnc2c(N)ncnc21)OCOC(=O)OC(C)C [5f] | 50000 | 16600 | 3 |  |  |  |  |
| CCC(CC)OC(=O)OCOP(=O)(CO[C@H](C)Cn1cnc2c(N)ncnc21)OCOC(=O)OC(CC)CC [5g] | 40000 | 40000 | < 1 |  |  |  |  |
| C[C@H](Cn1cnc2c(N)ncnc21)OCP(=O)(O)O [compound 2, 9-[(R)-2-(phosphonomethoxy)propyl]adenine, reference compound] |  | 500 | 500 |  |  | 250000 | -2.5 |
